Data: patent US9440982B2 (Eolas Therapeutics, Inc., priority 2012, dated 2016)

Target: T1, CYP3A4 (Homo sapiens, UniProt P08684)
T1 construct: pre-incubated with human liver microsomes and NADPH; from tissue; host or cells: human liver microsomes
Assay: Cytochrome P450 inhibition assay (midazolam hydroxylation)
Type: in vitro ADME
Conditions: human, human liver microsomes, probe midazolam (hydroxylation to 1′-hydroxymidazolam), 10 μM test compound, midazolam at approximately its Km
Protocol: Compounds were tested for the potential to induce drug-drug interactions by inhibition of the cytochrome P450 3A4 isoform. The assay evaluated the metabolism of a specific marker substrate (CYP3A4, midazolam hydroxylation to 1′-hydroxymidazolam) in the presence or absence of 10 μM test compound. The concentration of the marker substrate was approximately its Km (Dixit et al., Biopharm. Drug Dispos. 2007, 28(5), 257-262). A specific inhibitor for the isoform was included in each run to validate the system. An appropriate positive control inhibitor was used. Mechanism-based inhibition was investigated where warranted using a classical method. To evaluate time-dependent inhibition, parallel samples may have been included where […] was pre-incubated with human liver microsomes and NADPH for 30 min prior to the addition of the P450 substrate. The percent inhibition of the pre-incubated and non-pre-incubated samples were compared as a preliminary evaluation of time-dependent inhibition.

T1 sequence (P08684 whole entry): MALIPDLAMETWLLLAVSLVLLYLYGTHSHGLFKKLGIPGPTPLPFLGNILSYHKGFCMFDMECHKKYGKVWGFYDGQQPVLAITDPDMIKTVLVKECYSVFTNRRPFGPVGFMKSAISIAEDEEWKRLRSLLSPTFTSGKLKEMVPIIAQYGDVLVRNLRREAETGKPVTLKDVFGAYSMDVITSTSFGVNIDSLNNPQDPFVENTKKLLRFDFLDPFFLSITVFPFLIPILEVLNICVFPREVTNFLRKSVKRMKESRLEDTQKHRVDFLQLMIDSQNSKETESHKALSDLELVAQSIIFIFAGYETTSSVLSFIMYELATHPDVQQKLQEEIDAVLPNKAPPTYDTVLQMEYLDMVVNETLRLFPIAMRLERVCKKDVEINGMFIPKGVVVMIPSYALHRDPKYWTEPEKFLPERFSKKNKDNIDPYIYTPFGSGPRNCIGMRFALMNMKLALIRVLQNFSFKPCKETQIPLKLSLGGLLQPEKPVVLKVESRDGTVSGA

| SMILES | inhibition at 10 µM |
| --- | --- |
| Cc1ccc(-n2nccn2)c(C(=O)N2CCC[C@@H](C)[C@H]2CNc2ccc(Cl)cn2)n1 [Example A178, ((2S,3R)-2-(((5-Chloropyridin-2-yl)amino)methyl)-3-methylpiperidin-1-yl)(6-methyl-3-(2H-1,2,3-triazol-2-yl)pyridin-2-yl)methanone] | 64% |
| Cc1ccc(NC[C@@H]2[C@H](C)CCCN2C(=O)c2nc(C)ccc2-n2nccn2)nc1 [Example A196, ((2S,3R)-3-Methyl-2-(((5-methylpyridin-2-yl)amino)methyl)piperidin-1-yl)(6-methyl-3-(2H-1,2,3-triazol-2-yl)pyridin-2-yl)methanone] | 50% |
| Cc1ccc(-n2nccn2)c(C(=O)N2CCC[C@@H](C)[C@H]2CNc2ncc(F)cc2F)c1 [Example A172, ((2S,3R)-2-(((3,5-Difluoropyridin-2-yl)amino)methyl)-3-methylpiperidin-1-yl)(5-methyl-2-(2H-1,2,3-triazol-2-yl)phenyl)methanone] | 76% |
| Cc1ccc(-c2ccccn2)c(C(=O)N2CCC[C@@H](C)[C@H]2CNc2ccc(C(F)(F)F)nn2)n1 [Example A165, ((2S,3R)-3-methyl-2-(((6-(trifluoromethyl)pyridazin-3-yl)amino)methyl)piperidin-1-yl)(6′-methyl-[2,3′-bipyridin]-2′-yl)methanone] | 42% |
| Cc1cccc(C(=O)N2CCC[C@@H](C)[C@H]2CNc2ncc(Cl)cn2)c1-n1nccn1 [Example A268, ((2S,3R)-2-(((5-Chloropyrimidin-2-yl)amino)methyl)-3-methylpiperidin-1-yl)(3-methyl-2-(2H-1,2,3-triazol-2-yl)phenyl)methanone] | 60% |
| Cc1ccc(-n2nccn2)c(C(=O)N2CCC[C@@H](C)[C@H]2CNc2cc(C)nc3nc(C)nn23)c1 [Example A213, ((2S,3R)-2-(((2,5-Dimethyl-[1,2,4]triazolo[1,5-a]pyrimidin-7-yl)amino)methyl)-3-methylpiperidin-1-yl)(5-methyl-2-(2H-1,2,3-triazol-2-yl)phenyl)methanone] | 19% |
| Cc1ccc(-n2ccc(C)n2)c(C(=O)N2CCC[C@@H](C)[C@H]2CNc2ccc(C(F)(F)F)cn2)c1 [Example A108, ((2S,3R)-3-Methyl-2-(((5-(trifluoromethyl)pyridin-2-yl)amino)methyl)piperidin-1-yl)(5-methyl-2-(3-methyl-1H-pyrazol-1-yl)phenyl)methanone] | 88% |
| Cc1ccc(-n2cccn2)c(C(=O)N2CCC[C@@H](C)[C@H]2CNc2ccc(C(F)(F)F)nn2)n1 [Example A164, ((2S,3R)-3-Methyl-2-(((6-(trifluoromethyl)pyridazin-3-yl)amino)methyl)piperidin-1-yl)(6-methyl-3-(1H-pyrazol-1-yl)pyridin-2-yl)methanone] | 37% |
| Cc1ccc(-n2nccn2)c(C(=O)N2CCC[C@@H](C)[C@H]2CNc2cccc(C(F)(F)F)n2)c1 [Example A89, ((2S,3R)-3-Methyl-2-(((6-(trifluoromethyl)pyridin-2-yl)amino)methyl)piperidin-1-yl)(5-methyl-2-(2H-1,2,3-triazol-2-yl)phenyl)methanone] | 92% |
| Cc1ccc(-c2cncn2C)c(C(=O)N2CCC[C@@H](C)[C@H]2CNc2ccc(C(F)(F)F)cn2)c1 [Example A26, ((2S,3R)-3-Methyl-2-(((5-(trifluoromethyl)pyridin-2-yl)amino)methyl)piperidin-1-yl)(5-methyl-2-(1-methyl-1H-imidazol-5-yl)phenyl)methanone] | 99% |
| Cc1ccc(-c2c(C)noc2C)c(C(=O)N2CCC[C@@H](C)[C@H]2CNc2ccc(C(F)(F)F)cn2)c1 [Example A7, (2-(3,5-Dimethylisoxazol-4-yl)-5-methylphenyl)((2S,3R)-3-methyl-2-(((5-(trifluoromethyl)pyridin-2-yl)amino)methyl)piperidin-1-yl)methanone] | 93% |
| Cc1nc(C(=O)N2CCC[C@@H](C)[C@H]2CNc2nc3cc(F)ccc3o2)c(-c2ccc(F)cc2)s1 [Example A15, ((2S,3R)-2-(((5-Fluorobenzo[d]oxazol-2-yl)amino)methyl)-3-methylpiperidin-1-yl) (5-(4-fluorophenyl)-2-methylthiazol-4-yl)methanone] | 78% |
| Cc1ccc(-n2cccn2)c(C(=O)N2CCC[C@@H](C)[C@H]2CNc2ncc(F)cn2)c1 [Example A170, ((2S,3R)-2-(((5-Fluoropyrimidin-2-yl)amino)methyl)-3-methylpiperidin-1-yl)(5-methyl-2-(1H-pyrazol-1-yl)phenyl)methanone] | 66% |
| Cc1ccc(-c2cnn(C)c2)c(C(=O)N2CCC[C@@H](C)[C@H]2CNc2ccc(Cl)cn2)c1 [Example A105, ((2S,3R)-2-(((5-Chloropyridin-2-yl)amino)methyl)-3-methylpiperidin-1-yl)(5-methyl-2-(1-methyl-1H-pyrazol-4-yl)phenyl)methanone] | 96% |
| Cc1ccc(-c2nccc(C)n2)c(C(=O)N2CCC[C@@H](C)[C@H]2CNc2nc3cc(Cl)ccc3o2)c1 [Example A35, ((2S,3R)-2-(((5-Chlorobenzo[d]oxazol-2-yl)amino)methyl)-3-methylpiperidin-1-yl)(5-methyl-2-(4-methylpyrimidin-2-yl)phenyl)methanone] | 92% |
| Cc1ccc(-n2nccn2)c(C(=O)N2CCC[C@@H](C)[C@H]2CNc2nnc(C(F)(F)F)s2)c1 [Example A102, ((2S,3R)-3-Methyl-2-(((5-(trifluoromethyl)-1,3,4-thiadiazol-2-yl)amino)methyl)piperidin-1-yl)(5-methyl-2-(2H-1,2,3-triazol-2-yl)phenyl)methanone] | 48% |
| Cc1ccc(-c2ccnn2C)c(C(=O)N2CCC[C@@H](C)[C@H]2CNc2nc3cc(Cl)ccc3o2)c1 [Example A36, ((2S,3R)-2-(((5-Chlorobenzo[d]oxazol-2-yl)amino)methyl)-3-methylpiperidin-1-yl)(5-methyl-2-(1-methyl-1H-pyrazol-5-yl)phenyl)methanone] | 97% |
| Cc1cc(C(=O)N2CCC[C@@H](C)[C@H]2CNc2ccc(C(F)(F)F)cn2)c(-n2nccn2)cc1F [Example A368, (4-Fluoro-5-methyl-2-(2H-1,2,3-triazol-2-yl)phenyl)((2S,3R)-3-methyl-2-(((5-(trifluoromethyl)pyridin-2-yl)amino)methyl)piperidin-1-yl)methanone] | 83% |
| Cc1cc(F)c(-c2ncccn2)c(C(=O)N2CCC[C@@H](C)[C@H]2CNc2ccc(C(F)(F)F)cn2)c1 [Example A374, (3-fluoro-5-methyl-2-(pyrimidin-2-yl)phenyl)((2S,3R)-3-methyl-2-(((5-(trifluoromethyl)pyridin-2-yl)amino)methyl)piperidin-1-yl)methanone] | 76% |
| Cc1ccc(-n2nccn2)c(C(=O)N2CCC[C@@H](C)[C@H]2CNc2nc(C)cs2)c1 [Example A124, ((2S,3R)-3-Methyl-2-(((4-methylthiazol-2-yl)amino)methyl)piperidin-1-yl)(5-methyl-2-(2H-1,2,3-triazol-2-yl)phenyl)methanone] | 55% |
| Cc1ccc(-n2cncn2)c(C(=O)N2CCC[C@@H](C)[C@H]2CNc2nc3cc(Cl)ccc3o2)c1 [Example A28, ((2S,3R)-2-(((5-Chlorobenzo[d]oxazol-2-yl)amino)methyl)-3-methylpiperidin-1-yl)(5-methyl-2-(1H-1,2,4-triazol-1-yl)phenyl)methanone] | 95% |
| Cc1ccc(-c2cnn(C)c2)c(C(=O)N2CCC[C@@H](C)[C@H]2CNc2cccc(C(F)(F)F)n2)c1 [Example A94, ((2S,3R)-3-Methyl-2-(((6-(trifluoromethyl)pyridin-2-yl)amino)methyl)piperidin-1-yl)(5-methyl-2-(1-methyl-1H-pyrazol-4-yl)phenyl)methanone] | 99% |
| Cc1ccc(-n2nccn2)c(C(=O)N2CCC[C@@H](C)[C@H]2CNc2ncc3c(C)cccc3n2)c1 [Example A214, ((2S,3R)-3-Methyl-2-(((5-methylquinazolin-2-yl)amino)methyl)piperidin-1-yl)(5-methyl-2-(2H-1,2,3-triazol-2-yl)phenyl)methanone] | 69% |
| Cc1ccc(-n2ccnc2)c(C(=O)N2CCC[C@@H](C)[C@H]2CNc2nc3cc(Cl)ccc3o2)c1 [Example A33, (2-(1H-Imidazol-1-yl)-5-methylphenyl)((2S,3R)-2-(((5-chlorobenzo[d]oxazol-2-yl)amino)methyl)-3-methylpiperidin-1-yl)methanone] | 98% |
| COc1ncc(-c2ccc(C)cc2C(=O)N2CCC[C@@H](C)[C@H]2CNc2ccc(C(F)(F)F)cn2)cn1 [Example A4, (2-(2-Methoxypyrimidin-5-yl)-5-methylphenyl)((2S,3R)-3-methyl-2-(((5-(trifluoromethyl)pyridin-2-yl)amino)methyl)piperidin-1-yl)methanone] | 96% |
| Cc1ccc(-n2nccn2)c(C(=O)N2CCC[C@@H](C)[C@H]2CNc2nccc(C(F)(F)F)n2)c1 [Example A163, ((2S,3R)-3-Methyl-2-(((4-(trifluoromethyl)pyrimidin-2-yl)amino)methyl)piperidin-1-yl)(5-methyl-2-(2H-1,2,3-triazol-2-yl)phenyl)methanone] | 90% |
| Cc1ccc(-c2ncccn2)c(C(=O)N2CCC[C@@H](C)[C@H]2CNc2ccc(C(F)(F)F)cn2)n1 [Example A183, ((2S,3R)-3-Methyl-2-(((5-(trifluoromethyl)pyridin-2-yl)amino)methyl)piperidin-1-yl)(6-methyl-3-(pyrimidin-2-yl)pyridin-2-yl)methanone] | 49% |
